In ChEMBL document CHEMBL5316291 (J Med Chem, 2023):
Calls of active or inactive are those of the source. The calls are words filed in the database; no cut-off is given here.

How the values were obtained:
[1] = target: Poly [ADP-ribose] polymerase 1 (Homo sapiens, UniProt P09874); experiment: Inhibition of human recombinant N-terminal GST-tagged PARP1 (2 to 1014 end residues) incubated for 1 hr by ELISA assay
[2] = target: T1, Poly [ADP-ribose] polymerase tankyrase-1 (Homo sapiens, UniProt O95271); experiment: Inhibition of human recombinant N-terminal GST-tagged PARP5a (1001 to 1327 end residues) expressed in baculovirus infected Sf9 cells expression system incubated for 1 hr by ELISA assay
T1 sequence (O95271 whole entry): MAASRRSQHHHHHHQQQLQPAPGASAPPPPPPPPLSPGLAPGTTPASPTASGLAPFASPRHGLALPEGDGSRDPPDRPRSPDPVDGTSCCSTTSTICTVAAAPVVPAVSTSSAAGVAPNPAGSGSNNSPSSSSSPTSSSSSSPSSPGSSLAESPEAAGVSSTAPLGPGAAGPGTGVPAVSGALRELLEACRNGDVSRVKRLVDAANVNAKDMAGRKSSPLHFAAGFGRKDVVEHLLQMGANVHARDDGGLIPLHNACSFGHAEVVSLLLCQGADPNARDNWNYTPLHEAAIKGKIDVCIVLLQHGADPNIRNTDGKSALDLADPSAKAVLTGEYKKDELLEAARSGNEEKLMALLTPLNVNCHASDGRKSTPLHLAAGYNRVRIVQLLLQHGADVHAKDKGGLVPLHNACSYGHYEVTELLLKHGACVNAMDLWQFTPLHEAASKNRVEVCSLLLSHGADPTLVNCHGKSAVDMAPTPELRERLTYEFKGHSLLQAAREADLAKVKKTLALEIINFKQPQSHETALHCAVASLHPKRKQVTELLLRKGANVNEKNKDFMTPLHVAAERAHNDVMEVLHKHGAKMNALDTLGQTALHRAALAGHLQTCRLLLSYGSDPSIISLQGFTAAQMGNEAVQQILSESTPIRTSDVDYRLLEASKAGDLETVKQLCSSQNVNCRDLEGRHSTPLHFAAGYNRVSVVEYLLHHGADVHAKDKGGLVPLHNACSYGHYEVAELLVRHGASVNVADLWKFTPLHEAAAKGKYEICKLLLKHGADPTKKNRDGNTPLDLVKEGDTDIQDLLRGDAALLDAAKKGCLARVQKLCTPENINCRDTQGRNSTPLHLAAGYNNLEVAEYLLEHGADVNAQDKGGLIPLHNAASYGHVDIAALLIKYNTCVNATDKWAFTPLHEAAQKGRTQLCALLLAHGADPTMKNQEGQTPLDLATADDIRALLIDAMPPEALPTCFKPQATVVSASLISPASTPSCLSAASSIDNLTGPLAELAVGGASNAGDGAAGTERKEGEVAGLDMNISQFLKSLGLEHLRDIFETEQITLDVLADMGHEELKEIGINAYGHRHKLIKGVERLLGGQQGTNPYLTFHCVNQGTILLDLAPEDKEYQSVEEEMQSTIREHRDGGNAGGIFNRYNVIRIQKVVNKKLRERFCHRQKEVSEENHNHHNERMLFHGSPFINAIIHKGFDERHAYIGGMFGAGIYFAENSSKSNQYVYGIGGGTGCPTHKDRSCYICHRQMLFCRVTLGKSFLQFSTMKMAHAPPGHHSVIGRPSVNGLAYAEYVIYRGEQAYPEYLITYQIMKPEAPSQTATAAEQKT

[3] = target: T2, Poly [ADP-ribose] polymerase tankyrase-2 (Homo sapiens, UniProt Q9H2K2); experiment: Inhibition of human recombinant N-terminal GST-tagged PARP5b (667 to 1166 end residues) expressed in baculovirus infected Sf9 cells expression system incubated for 1 hr by ELISA assay
T2 sequence (Q9H2K2 whole entry): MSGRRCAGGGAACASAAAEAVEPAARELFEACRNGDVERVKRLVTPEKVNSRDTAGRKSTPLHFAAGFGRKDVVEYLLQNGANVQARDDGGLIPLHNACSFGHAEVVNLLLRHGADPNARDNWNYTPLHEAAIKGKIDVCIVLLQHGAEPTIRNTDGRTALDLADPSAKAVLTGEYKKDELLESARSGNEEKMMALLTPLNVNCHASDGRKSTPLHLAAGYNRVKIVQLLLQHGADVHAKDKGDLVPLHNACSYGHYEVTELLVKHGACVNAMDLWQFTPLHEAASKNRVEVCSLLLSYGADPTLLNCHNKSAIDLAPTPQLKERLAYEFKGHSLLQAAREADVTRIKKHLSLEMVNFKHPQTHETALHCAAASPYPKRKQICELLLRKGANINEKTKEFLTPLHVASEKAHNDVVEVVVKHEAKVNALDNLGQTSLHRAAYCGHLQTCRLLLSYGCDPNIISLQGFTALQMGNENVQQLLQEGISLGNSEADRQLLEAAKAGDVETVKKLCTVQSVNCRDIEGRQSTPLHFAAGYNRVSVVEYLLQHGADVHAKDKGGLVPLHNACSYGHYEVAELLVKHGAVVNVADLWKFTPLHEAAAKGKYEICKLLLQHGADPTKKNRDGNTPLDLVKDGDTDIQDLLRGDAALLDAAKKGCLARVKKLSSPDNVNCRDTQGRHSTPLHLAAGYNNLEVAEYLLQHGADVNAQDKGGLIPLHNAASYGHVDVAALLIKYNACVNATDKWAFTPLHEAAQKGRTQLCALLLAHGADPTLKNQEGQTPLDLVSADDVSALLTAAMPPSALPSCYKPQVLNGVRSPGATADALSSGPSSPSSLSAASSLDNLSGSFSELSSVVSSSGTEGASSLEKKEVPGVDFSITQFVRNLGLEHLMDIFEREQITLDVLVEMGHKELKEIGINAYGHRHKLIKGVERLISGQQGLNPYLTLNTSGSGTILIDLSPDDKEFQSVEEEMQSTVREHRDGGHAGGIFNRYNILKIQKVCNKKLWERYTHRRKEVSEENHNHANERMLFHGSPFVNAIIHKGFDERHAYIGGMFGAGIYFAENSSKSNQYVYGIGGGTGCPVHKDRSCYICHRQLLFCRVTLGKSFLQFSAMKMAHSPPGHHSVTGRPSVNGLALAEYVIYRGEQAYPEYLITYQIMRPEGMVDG

[4] = Half life in ICR mouse at 1 mg/kg, iv measured upto 24 hrs by LC-MS/MS analysis; assay type: ADME, organism-based; settings: in vivo
[5] = Clearance in ICR mouse at 1 mg/kg, iv measured upto 24 hrs by LC-MS/MS analysis; assay type: ADME, organism-based; settings: in vivo
[6] = Clearance in ICR mouse at 10 mg/kg, po measured upto 24 hrs by LC-MS/MS analysis; assay type: ADME, organism-based; settings: in vivo
[7] = Toxicity in BALB/c mouse implanted with mouse CT26 cells assessed as spleen damage at 100 mg/kg, po measured for 14 days by hematoxylin and eosin staining based fluorescence microscopic analysis; assay type: organism-based; settings: in vivo, 336 h, time 14 day
[8] = tested on: CT26; experiment: Antitumor activity against mouse CT26 cells implanted in immunodeficient BALB/c mouse at 100 mg/kg, po bid measured for 10 days; assay type: functional, organism-based; settings: time 10.0 day

Sequence of Poly [ADP-ribose] polymerase 1 (P09874 whole entry): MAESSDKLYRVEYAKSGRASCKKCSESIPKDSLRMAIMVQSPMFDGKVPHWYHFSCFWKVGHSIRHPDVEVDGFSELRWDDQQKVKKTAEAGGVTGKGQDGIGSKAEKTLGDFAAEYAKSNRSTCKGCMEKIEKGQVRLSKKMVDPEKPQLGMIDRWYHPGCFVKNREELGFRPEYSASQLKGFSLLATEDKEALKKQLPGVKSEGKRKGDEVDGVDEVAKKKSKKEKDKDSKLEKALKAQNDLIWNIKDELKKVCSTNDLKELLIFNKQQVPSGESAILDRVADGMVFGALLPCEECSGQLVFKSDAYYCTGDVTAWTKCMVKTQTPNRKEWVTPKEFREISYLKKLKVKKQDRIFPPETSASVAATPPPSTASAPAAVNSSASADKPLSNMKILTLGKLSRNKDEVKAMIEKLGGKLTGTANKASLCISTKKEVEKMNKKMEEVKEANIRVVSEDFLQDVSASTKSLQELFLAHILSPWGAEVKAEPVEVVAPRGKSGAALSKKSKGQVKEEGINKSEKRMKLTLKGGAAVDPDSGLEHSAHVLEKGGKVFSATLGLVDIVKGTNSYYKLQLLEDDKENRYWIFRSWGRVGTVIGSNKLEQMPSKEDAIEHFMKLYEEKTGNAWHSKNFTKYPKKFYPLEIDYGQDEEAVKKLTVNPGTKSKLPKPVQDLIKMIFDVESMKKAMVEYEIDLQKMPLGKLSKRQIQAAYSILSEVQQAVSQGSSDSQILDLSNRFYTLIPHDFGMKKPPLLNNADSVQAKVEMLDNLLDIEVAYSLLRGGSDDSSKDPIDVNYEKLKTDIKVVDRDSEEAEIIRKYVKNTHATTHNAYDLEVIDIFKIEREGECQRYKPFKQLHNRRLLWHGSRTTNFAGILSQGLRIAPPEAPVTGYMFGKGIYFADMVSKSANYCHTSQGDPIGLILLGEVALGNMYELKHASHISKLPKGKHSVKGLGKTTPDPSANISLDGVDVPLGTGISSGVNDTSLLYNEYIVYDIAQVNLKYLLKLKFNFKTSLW

IC50 [1]: > 5000 nM
IC50 [2]: 174 nM
IC50 [3]: 227 nM
t1/2 [4]: 1.44 h
clearance [5]: 29 mL/min/kg
CL/F [6]: 30.3 mL/min/kg
Structure (SMILES): C[C@@H](CN1CC(C(=O)N2CCN(c3ncc(C(F)(F)F)cn3)CC2)C1)Nc1cn[nH]c(=O)c1C(F)(F)F
Activity [7]: Non-Toxic
Activity [8]: inactive
